Test results taken from patent US20040122026A1, “Imidazolidine compounds” (Millennium Pharmaceuticals, Inc., priority 2002, published 2004).

Target: T1, CXCR3 (Homo sapiens, UniProt P49682)
T1 construct: expressed in transfected cells; membrane preparation
T1 sequence (P49682 1-368): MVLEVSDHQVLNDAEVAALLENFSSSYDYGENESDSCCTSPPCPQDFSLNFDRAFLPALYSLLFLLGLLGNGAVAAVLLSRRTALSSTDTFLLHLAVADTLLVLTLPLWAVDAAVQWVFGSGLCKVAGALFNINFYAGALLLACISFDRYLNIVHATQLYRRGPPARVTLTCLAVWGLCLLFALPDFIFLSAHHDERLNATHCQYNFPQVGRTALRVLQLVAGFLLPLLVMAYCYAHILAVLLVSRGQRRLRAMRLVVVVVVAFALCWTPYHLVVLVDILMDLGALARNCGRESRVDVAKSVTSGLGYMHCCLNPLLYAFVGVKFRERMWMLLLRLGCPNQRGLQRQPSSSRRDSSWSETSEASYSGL
Assay: CXCR3/IP-10 radioligand binding (125I-IP-10 competition on CXCR3.L1/2 cell membranes)
Settings: test compound 10 μmol/L, 125I-labeled IP-10 binding to CXCR3.L1/2 transfectant cell membranes
From the text: The activity of the compounds of the present invention can be assessed using a suitable assay, such as a receptor binding assay, a chemotaxis assay, an extracellular acidification assay or a calcium flux assay (see, for example, Hesselgesser et al., J. Biol. Chem., 273(25): 15687-15692 (1998) and WO 98/02151). For example, as described herein, small organic molecule antagonists of CXCR3/IP-10 binding have been identified utilizing cells engineered to express recombinant human CXCR3 (CXCR3.L1/2) and which bind ^125I-IP-10 and chemotax in response to IP-10, Mig, or I-TAC. Specifically, a high through-put receptor binding assay, which monitors ^125I-IP-10 biding to CXCR3.L1/2 cell membranes, was used to identify small molecule antagonists. Binding assays can be performed using other ligands of CXCR3, such as, Mig, and/or I-TAC.
CXCR3/IP-10 Radioligand Binding:
CXCR3.L1/2 Membrane Preparation:
CXCR3.L1/2 cells were pelleted by centrifugation and stored at −80° C. The cells were lysed by thawing and resuspending at about 1.5×10^7 cells/mL in a hypotonic buffer (5 mmol/L HEPES (pH 7.2), 2 mmol/L EDTA, 10 μg/mL each leupeptin, aprotinin, and chymostatin, and 100 μg/mL PMSF (all from Sigma, St. Louis)). Nuclei and cellular debris are removed by centrifugation ([…], at 4° C.) for 10 min. The supernatant was transferred to chilled centrifuge tubes (Nalge, Rochester, N.Y.) and the membrane fraction was recovered by centrifugation (25,000 g at 4° C.) for 45 min. The membrane pellet was resuspended in freezing buffer (10 mmol/L HEPES (pH 7.2), 300 mmol/L Sucrose, 5 μg/mL each of leupeptin, aprotinin, and chymostatin, and 10 μg/mL PMSF). The total protein concentration was determined using a coomassie blue staining protein concentration assay kit (BioRad). The membrane preparations are aliquoted and stored at −80° C. until time of use.
CXCR3/IP-10 binding was performed in 96-well polypropylene plates (Costar) in a final volume of 0.1 mL of HBB buffer (50 mmol/L Hepes pH 7.4, 1 mmol/L CaCl2, 5 mmol/L MgCl2, 0.02% sodium azide, 0.5% BSA (bovine serum albumin)), containing 1 to 5 μg CXCR3.L1/2 transfectant cell membrane protein and 0.05 to 0.2 nmol/L of ^125I-labeled IP-10 (NEN, Boston, Mass.). Competition binding experiments were performed by including variable concentrations of unlabeled IP-10 or test compound. Nonspecific binding was determined following the addition of a 250 nmol/L unlabelled IP-10. Samples were incubated for 60 min at room temperature, and bound and free tracer (^125I-labeled IP-10) were separated by filtration through 96-well GF/B filterplates presoaked in 0.3% polyethyleneimine. The filters were washed in HBB further supplemented with 0.5 mol/L NaCl, dried, and the amount of bound radioactivity determined by liquid scintillation counting. The competition is presented as the percent specific binding as calculated by 100×[(S−B)/(T−B)], where S is the radioactivity bound for each sample, B is background binding, and T is total bound in the absence of competitors. Duplicates were used throughout the experiments.

SMILES | inhibition at 10 µM (results Table 6) [%] | inhibition at 10 µM (results Table 5) [%]
CCCNCc1cccc(N(CC)C(=O)CCN2CCN(Cc3cc(C)cc(C)c3)C2=C(C#N)C#N)c1 [Compound 21, N-Ethyl-N-[3-(propylaminomethyl)phenyl]-3-[3-(3,5-dimethylbenzyl)-2-dicyanomethylideneimidazolidin-1-yl]propionamide] | 71 | –
Cc1cc(C)cc(CN2CCN(CCC(=O)N(C)c3cccc(CN4CCCCC4)c3)C2=C(C#N)C#N)c1 [Compound 1, N-Methyl-N-[3-(piperidinomethyl)phenyl]-3-[3-(3,5-dimethylbenzyl)-2-dicyanomethylideneimidazolidin-1-yl]propionamide] | – | 92
Cc1cc(C)cc(CN2CCN(CCC(=O)N(c3cccc(CN(C)CCO)c3)C(C)C)C2=C(C#N)C#N)c1 [Compound 27, N-Isopropyl-N-[3-[(N-(2-hydroxyethyl)-N-methylamino)methyl]phenyl]-3-[3-(3,5-dimethylbenzyl)-2-dicyanomethylideneimidazolidin-1-yl]propionamide] | 92 | –
Cc1cc(C)cc(CN2CCN(CCC(=O)N(Cc3nnn[nH]3)c3cccc(CN4CCCCC4)c3)C2=C(C#N)C#N)c1 [Compound 13, N-(1H-tetrazol-5-ylmethyl)-N-[3-(piperidinomethyl)phenyl]-3-[3-(3,5-dimethylbenzyl)-2-dicyanomethylideneimidazolidin-1-yl]propionamide] | – | 67
CCCN(C(=O)CCN1CCN(Cc2cc(Cl)cc(Cl)c2)C1=C(C#N)C#N)c1cc(CN2CCCCC2)ccc1C [Compound 18, N-Propyl-N-[2-methyl-5-(piperidinomethyl)phenyl]-3-[3-(3,5-dichlorobenzyl)-2-dicyanomethylideneimidazolidin-1-yl]propionamide] | 94 | –
